Values after ≈ are worked out from the molar mass of the structure shown.
Test system: Vibrio anguillarum
Experiment: Antimicrobial activity against Vibrio anguillarum after 24 to 48 hrs
Assay type: functional

`CC(C)C[C@H]1NC(=O)[C@@H](C(C)C)NC1=O` and `CC(C)C[C@H]1NC(=O)[C@@H](Cc2cnc[nH]2)NC1=O` are within 1.5-fold of each other in MIC: 0.05 µg/mL (≈ 0.236 µM) for the first, 0.07 µg/mL (≈ 0.28 µM) for the second.

`CC[C@@H](C)[C@H]1NC(=O)[C@@H]2CCCN2C1=O` and `CC[C@@H](C)[C@@H]1NC(=O)[C@H]2CCCN2C1=O` are within 1.5-fold of each other in MIC: 0.11 µg/mL (≈ 0.523 µM) for the first, 0.12 µg/mL (≈ 0.571 µM) for the second.

Going from `O=C1N[C@@H](Cc2ccccc2)C(=O)N2CCC[C@H]12` to `O=C1N[C@H](Cc2ccccc2)C(=O)N2CCC[C@H]12`, the MIC falls from 0.1 µg/mL (≈ 0.409 µM) to 0.03 µg/mL (≈ 0.123 µM) (3.3-fold).

First: CC(C)[C@@H]1NC(=O)[C@H]2CCCN2C1=O
Second: CC(C)[C@H]1NC(=O)[C@H]2CCCN2C1=O
The MIC of the first is 2.2-fold higher: 0.11 µg/mL (≈ 0.561 µM) for the first, 0.05 µg/mL (≈ 0.255 µM) for the second.

First: CC(C)C[C@H]1NC(=O)[C@H]2CCCN2C1=O
Second: CC(C)C[C@@H]1NC(=O)[C@H]2CCCN2C1=O
The MIC of the first is 3.2-fold lower: 0.04 µg/mL (≈ 0.19 µM) for the first, 0.13 µg/mL (≈ 0.618 µM) for the second.

First: O=C1N[C@H](Cc2ccccc2)C(=O)N2C[C@H](O)C[C@H]12
Second: O=C1N[C@H](Cc2ccccc2)C(=O)N2CCC[C@@H]12
The MIC of the first is 1.9-fold lower: 0.07 µg/mL (≈ 0.269 µM) for the first, 0.13 µg/mL (≈ 0.532 µM) for the second.

Going from `CC(C)[C@H]1NC(=O)[C@@H]2CCCN2C1=O` to `CC[C@@H](C)[C@H]1NC(=O)[C@H]2CCCN2C1=O`, the MIC falls from 0.14 µg/mL (≈ 0.713 µM) to 0.05 µg/mL (≈ 0.238 µM) (2.8-fold).

Work on `CC(C)C[C@H]1NC(=O)[C@@H]2CCCN2C1=O` yielded an MIC of 0.12 µg/mL (≈ 0.571 µM).

Source: ChEMBL document CHEMBL1147226, “dd-diketopiperazines: antibiotics active against Vibrio anguillarum isolated from marine bacteria associated with cultures of Pecten maximus” (2003)
